Structures can show the parent of a compound that is named as a salt. Where two headings read alike, the source gives them in different places.
Experiments:
[1] = tested on: Gram-negative and -positive bacteria; experiment: Antibacterial activity, general trends of the MIC panel of Table I; format: cell-based; settings: E. cloacae, all of the susceptible E. coli strains, H. influenzae 487, all of the S. aureus strains
Text: (§1) The antibacterial effects of compounds of the invention have been assessed by determination of the minimum inhibitory concentration (M.I.C.) value against a variety of Gram-negative and -positive bacteria. The microbial susceptibility data for four compounds, together with those for the antibacterial dipeptide beta-Cl-LAla-beta-Cl-LAla, are given in Table I.

Corynebacterium JKR-2285 = experiment: Minimum inhibitory concentration (MIC); format: cell-based
Text: as §1
(§2) in uM to facilitate a meaningful comparison of the approximate MICs among
(§3) the tested compounds; an appreciation of the MIC values in ug/mL can be
(§4) obtained by multiplying each value (μM) by 0.55
(§5) ^(j) Resistant to cephalothin (MIC >200 uM);

Escherichia coli Ceph^R = experiment: Minimum inhibitory concentration (MIC); format: cell-based; settings: Escherichia coli, read-out: Minimum Inhibitory Concentration
Text: as §1, §2, §3, §4, §5

Corynebacterium JKM-4754 = experiment: Minimum inhibitory concentration (MIC); format: cell-based
Text: as §1, §2, §3, §4, §5

[2] = target: E. coli TEM beta-lactamase (Escherichia coli, UniProt P62593); experiment: Kinetics of enzymatic turnover by E. coli TEM beta-lactamase; format: biochemical
E. coli TEM beta-lactamase, sequence (P62593 24-286 limits assumed): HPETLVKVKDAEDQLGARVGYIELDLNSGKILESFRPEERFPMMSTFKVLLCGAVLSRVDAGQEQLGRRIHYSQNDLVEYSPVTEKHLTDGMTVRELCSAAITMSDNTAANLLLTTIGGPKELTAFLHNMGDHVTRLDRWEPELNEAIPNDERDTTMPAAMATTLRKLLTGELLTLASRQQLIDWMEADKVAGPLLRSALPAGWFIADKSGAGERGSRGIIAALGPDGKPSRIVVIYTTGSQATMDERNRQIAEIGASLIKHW
Procedure: Escherichi coli TEM beta-lactamase was purchased from Applied Microbiology and Research, Porton Down, U.K. L-Alanyl-L-alanine was purchase from Sigma; N-BOC-LAla-LAla and N-BOC-beta-Cl-LAla-beta-Cl-LAla were prepared as described previously. Cheung et al supra. All other reagents were of the best grade commercially available.
Kinetic Constants for the Reactions of E. coli TEM beta-Lactamase with Cephalothin and the Cephalosporin Peptide Esters 7 and 17.

[3] = tested on: Escherichia coli JSR-O pBR322; experiment: Minimum inhibitory concentration (MIC); format: cell-based; settings: read-out: Minimum Inhibitory Concentration
Text: as §1, §2, §3, §4
^(i) Contains the plasmid gene encoding the TEM betalactamase.

Serratia marcescens = experiment: Minimum inhibitory concentration (MIC); format: cell-based; settings: Gram-negative
Text: as §1, §2, §3, §4

[4] = tested on: Staphylococcus aureus H-2690-8^R; experiment: Minimum inhibitory concentration (MIC); format: cell-based; settings: possesses a betalactamase
Text: as §1, §2, §3, §4

[5] = tested on: Hemophilus influenzae 238; experiment: Minimum inhibitory concentration (MIC); format: cell-based; settings: Haemophilus influenzae
Text: as §1, §2, §3, §4

Shigella flexneri = experiment: Minimum inhibitory concentration (MIC); format: cell-based; settings: Gram-negative
Text: as §1, §2, §3, §4

Klebsiella pneumoniae = experiment: Minimum inhibitory concentration (MIC); format: cell-based; settings: Gram-negative
Text: as §1, §2, §3, §4

Enterobacter areogenes = experiment: Minimum inhibitory concentration (MIC); format: cell-based; settings: Gram-negative
Text: as §1, §2, §3, §4

[6] = tested on: Staphylococcus aureus PSL-14 Pen^R; experiment: Minimum inhibitory concentration (MIC); format: cell-based; settings: possesses a betalactamase
Text: as §1, §2, §3, §4

[7] = tested on: Staphylococcus aureus PSL-15 Pen^R; experiment: Minimum inhibitory concentration (MIC); format: cell-based; settings: possesses a betalactamase
Text: as §1, §2, §3, §4

[8] = tested on: Staphylococcus aureus PSL-13 Pen^R; experiment: Minimum inhibitory concentration (MIC); format: cell-based; settings: possesses a betalactamase
Text: as §1, §2, §3, §4

Psuedomonas aeruginosa = experiment: Minimum inhibitory concentration (MIC); format: cell-based; settings: Gram-negative
Text: as §1, §2, §3, §4

Streptococcus faecalis = experiment: Minimum inhibitory concentration (MIC); format: cell-based; settings: Enterococcus faecalis; Streptococcus faecalis; Gram positive; read-out: Minimum Inhibitory Concentration
Text: as §1, §2, §3, §4

[9] = tested on: Staphylococcus aureus PSL-16 Pen^R; experiment: Minimum inhibitory concentration (MIC); format: cell-based; settings: possesses a betalactamase
Text: as §1, §2, §3, §4

[10] = tested on: Staphylococcus aureus T-4624-8 Pen^R; experiment: Minimum inhibitory concentration (MIC); format: cell-based; settings: possesses a betalactamase
Text: as §1, §2, §3, §4

[11] = tested on: Hemophilus influenzae 487; experiment: Minimum inhibitory concentration (MIC); format: cell-based; settings: Haemophilus influenzae, possesses a betalactamase
Text: as §1, §2, §3, §4

[12] = tested on: Salmonella typhimurium LT 2; experiment: Minimum inhibitory concentration (MIC); format: cell-based; settings: Salmonella enterica, Gram-negative
Text: as §1, §2, §3, §4

Salmonella typhimurium = experiment: Minimum inhibitory concentration (MIC); format: cell-based; settings: Salmonella enterica, Gram-negative
Text: as §1, §2, §3, §4

Streptococcus agalactiae = experiment: Minimum inhibitory concentration (MIC); format: cell-based; settings: Gram positive
Text: as §1, §2, §3, §4

Morganella morganii = experiment: Minimum inhibitory concentration (MIC); format: cell-based; settings: Gram-negative
Text: as §1, §2, §3, §4

Enterobacter cloacae = experiment: Minimum inhibitory concentration (MIC); format: cell-based; settings: Gram-negative, read-out: Minimum Inhibitory Concentration
Text: as §1, §2, §3, §4

Escherichia coli CR = experiment: Minimum inhibitory concentration (MIC); format: cell-based; settings: Escherichia coli CR; read-out: Minimum Inhibitory Concentration
Text: as §1, §2, §3, §4

Escherichia coli DB4548 = experiment: Minimum inhibitory concentration (MIC); format: cell-based
Text: as §1, §2, §3, §4

[13] = tested on: Hemophilus influenzae 236; experiment: Minimum inhibitory concentration (MIC); format: cell-based; settings: Haemophilus influenzae
Text: as §1, §2, §3, §4

Escherichia coli JSR-O = experiment: Minimum inhibitory concentration (MIC); format: cell-based; settings: Escherichia coli JSR-O; parental strain; read-out: Minimum Inhibitory Concentration
Text: as §1, §2, §3, §4

[14] = tested on: Escherichia coli JSR-O Cl-Pep^R; experiment: Minimum inhibitory concentration (MIC); format: cell-based; settings: Escherichia coli, read-out: Minimum Inhibitory Concentration
Text: as §1, §2, §3, §4
^(g) This ia an E. coli JSRO strain selected for resistance to the
A comparison of the data for E. coli strains JSR-O and JSR-O Cl-Pep^R is of special interest. E. coli Cl-Pep^R is an E. coli JSR-O mutant which was selected for resistance to the dipeptide (f). […] Note that the MIC values for (d) and (e) against E. coli Cl-Pep^R (100 and 50 μM, respectively) are quite similar.

[15] = tested on: Staphylococcus epidermidis (P^R M^R); experiment: Minimum inhibitory concentration (MIC); format: cell-based; settings: no strain number
Text: as §1, §2, §3, §4
(§6) ^(k) P and M refer to penicillin and methicillin, respectively.

[16] = tested on: Staphylococcus epidermidis MO1554(P^S M^S); experiment: Minimum inhibitory concentration (MIC); format: cell-based; settings: Staphylococcus epidermidis MO1554 (penicillin- and methicillin-sensitive, P^S M^S)
Text: as §1, §2, §3, §4, §6

[17] = tested on: Staphylococcus epidermidis 1239(P^R M^R); experiment: Minimum inhibitory concentration (MIC); format: cell-based
Text: as §1, §2, §3, §4, §6

In the case of `C[C@H](N)C(=O)N[C@@H](C)C(=O)OCC1=C(C(=O)O)N2C(=O)[C@@H](NC(=O)Cc3cccs3)[C@H]2SC1` [(d), Sodium 7-beta-(2-thienylacetamido)-3-(L-alanyl-L-alanyloxymethyl)-3-cephem-4-carboxylate, toluenesulfonic acid salt], the sensitivity observed [1] is reported as “no activity was seen”, the MIC (Corynebacterium JKR-2285; JKR2285, Corynebacterium JKR-2285, resistant to cephalothin, read-out: Minimum Inhibitory Concentration) is reported as > 200 µM and the MIC (Escherichia coli Ceph^R) is reported as > 200 µM. The MIC (Corynebacterium JKM-4754; JKM4754, Corynebacterium JKM-4754, resistant to cephalothin, read-out: Minimum Inhibitory Concentration) was > 200 µM, the “Vmax compared with cephalothin” value [2] was “substantially greater than that obtained for cephalothin” and the “substrate for the lactamase” value [2] was “found to be substrates for the E. coli TEM beta-lactamase”. The “binding to the lactamase (KM approximating KS)” value ([2]; effect of the C10-dipeptidyl substituent) was “do not compromise the binding of the cephalosporin nucleus to the lactamase”, the MIC [3] was > 200 µM and the MIC (Serratia marcescens) was > 200 µM. The MIC [4] was 25 µM, the MIC [5] was ≤ 0.78 µM and the MIC (Shigella flexneri) was 100 µM. For the same molecule, the MIC (Klebsiella pneumoniae) was > 200 µM, the MIC (Enterobacter areogenes) was > 200 µM and the MIC [6] was > 200 µM. For the same molecule, the MIC [7] was > 200 µM, the MIC [8] was > 200 µM and the MIC (Psuedomonas aeruginosa) was > 200 µM. It also gave an MIC (Streptococcus faecalis) of 50 µM, an MIC [9] of 200 µM and an MIC [10] of 25 µM. It also gave an MIC [11] of 12.5 µM, an MIC [12] of 25 µM and an MIC (Salmonella typhimurium) of 100 µM. For the same molecule, the MIC (Streptococcus agalactiae) was ≤ 0.78 µM, the MIC (Morganella morganii) was 100 µM and the MIC (Enterobacter cloacae) was 200 µM. The MIC (Escherichia coli CR) was 200 µM, the MIC (Escherichia coli DB4548) was 50 µM and the MIC [13] was 50 µM. For the same molecule, the MIC (Escherichia coli JSR-O) was 200 µM, the MIC [14] was 100 µM and the MIC [15] was ≤ 0.78 µM. For the same molecule, the MIC [16] was ≤ 0.78 µM and the MIC [17] was ≤ 0.78 µM.

In the case of `CC(=O)OCC1=C(C(=O)O)N2C(=O)[C@@H](NC(=O)Cc3cccs3)[C@H]2SC1` [cephalothin, reference compound], the MIC (Corynebacterium JKR-2285; Corynebacterium, JKR2285, read-out: Minimum Inhibitory Concentration) is reported as > 200 µM, the MIC (Escherichia coli Ceph^R) is reported as > 200 µM and the MIC (Corynebacterium JKM-4754; Corynebacterium, JKM4754, read-out: Minimum Inhibitory Concentration) is reported as > 200 µM.

Source: US4783443A, “Amino acyl cephalosporin derivatives” (The University of Chicago, priority 1986, dated 1988)
